# Experimental data from ChEMBL document CHEMBL4270549, “Influence of the C-5 substitution in polysubstituted pyrimidines on inhibition of prostaglandin E2 production” (Eur J Med Chem, 2018).
# Calls of active or inactive are those of the source. No cut-off for these calls is given here.
# Experiments:
# [1] = species on record: Mus musculus; assay: Inhibition of LPS-induced PGE2 production in C57BL6 mouse peritoneal cells at 50 uM measured at 5 hrs time interval by ELISA; type: functional
# [2] = Cytotoxicity against C57BL6 mouse peritoneal cells assessed as cell viability measured at 5 hrs time interval by LDH release assay (reference value: 98.9 +/- 1.6%); type: cell-based; conditions: read-out: Activity
# [3] = Inhibition of LPS-induced PGE2 production in C57BL6 mouse peritoneal cells measured at 5 hrs time interval by ELISA; type: functional; conditions: C57BL6, 5 h
SMILES,inhibition [1],viability at 5 h [2] [%],IC50 [3] [µM]
CCCCc1c(-c2ccc(C)cc2)nc(N)nc1-c1ccc(C)cc1,Active,,
Cc1ccc(-c2cc(Cl)nc(N)n2)cc1,Active,103,2.32
COc1ccc(-c2cc(-c3ccc(C)cc3)nc(N)n2)cc1,Active,,
COc1ccc(-c2cc(Cl)nc(N)n2)cc1,Active,103,2.79
CCCCc1c(Cl)nc(N)nc1-c1ccc(OC)cc1,Active,96.6,2.16
CCCCc1c(-c2ccc(OC)cc2)nc(N)nc1-c1ccc(OC)cc1,Active,99.1,3.71
COc1ccc(-c2cc(-c3ccc(OC)cc3)nc(N)n2)cc1,Active,102,0.119
CCCCc1c(Cl)nc(N)nc1Cl,Active,99.8,5.34
COc1ccc(-c2nc(N)nc(Cl)c2C)cc1,Active,,
CCCCc1c(-c2ccccc2)nc(N)nc1-c1ccc(C)cc1,Active,102,2.46
Cc1ccc(-c2nc(N)nc(-c3ccc(C)cc3)c2C)cc1,Active,,
Nc1nc(-c2ccccc2)cc(-c2ccccc2)n1,Active,97.4,0.003
Cc1ccc(-c2nc(N)nc(-c3ccccc3)c2C)cc1,Active,,
Cc1c(-c2ccccc2)nc(N)nc1-c1ccccc1,Active,,
Nc1nc(Cl)cc(Cl)n1,inactive,,
CCCCc1c(Cl)nc(N)nc1-c1ccccc1,Active,,

SMILES,inhibition [1],viability at 5 h [2] [%],IC50 [3] [µM]
COc1ccc2c(c1)c(CC(=O)O)c(C)n2C(=O)c1ccc(Cl)cc1 [INDOMETHACIN],,,0.005
Cc1ccc(-c2cc(-c3ccccc3)nc(N)n2)cc1,Active,103,0.009
CCCCc1c(Cl)nc(N)nc1-c1ccc(C)cc1,Active,101,1.86
Cc1c(Cl)nc(N)nc1Cl,inactive,,
CCCCc1c(-c2ccccc2)nc(N)nc1-c1ccccc1,Active,,
COc1ccc(-c2nc(N)nc(-c3ccc(OC)cc3)c2C)cc1,Active,,
COc1ccc(-c2nc(N)nc(-c3ccccc3)c2C)cc1,Active,,
Nc1nc(Cl)cc(-c2ccccc2)n1,Active,,
CCCCc1c(-c2ccccc2)nc(N)nc1-c1ccc(OC)cc1,Active,102,3.4
Cc1c(Cl)nc(N)nc1-c1ccccc1,Active,,
COc1ccc(-c2cc(-c3ccccc3)nc(N)n2)cc1,Active,99.9,0.009
CC(=O)Oc1ccccc1C(=O)O [ASPIRIN],,,4.08
Cc1ccc(-c2nc(N)nc(Cl)c2C)cc1,Active,,
Cc1ccc(-c2cc(-c3ccc(C)cc3)nc(N)n2)cc1,Active,103,0.033
COc1ccc(-c2nc(N)nc(-c3ccc(C)cc3)c2C)cc1,Active,,
CCCCc1c(-c2ccc(C)cc2)nc(N)nc1-c1ccc(OC)cc1,Active,,
